Test results as given in the kinase profiling compilation of Christmann-Franck et al. (2016).

Columns and labels:
Assay in all cases: KINOMEscan competition binding
Details in all cases: compound 10.0 µM
AURKA (human) = AURKA (human) (UniProt O14965)
BMPR1A (human) = BMPR1A (human) (UniProt P36894)
BRSK1 (human) = BRSK1 (human) (UniProt Q8TDC3)
CAMK2G (human) = CAMK2G (human) (UniProt Q13555)
CDC2L2 (human) = CDC2L2 (human) (UniProt Q9UQ88)
CIT (human) = CIT (human) (UniProt O14578)
CLK2 (human) = CLK2 (human) (UniProt P49760)
CSNK2A1 (human) = CSNK2A1 (human) (UniProt P68400)
CSNK2A2 (human) = CSNK2A2 (human) (UniProt P19784)
DDR2 (human) = DDR2 (human) (UniProt Q16832)
DYRK1A (human) = DYRK1A (human) (UniProt Q13627)
[1] = tested on: EGFR (human), P00533 [L858R]
EIF2AK1 (human) = EIF2AK1 (human) (UniProt Q9BQI3)
EPHA4 (human) = EPHA4 (human) (UniProt P54764)
EPHB6 (human) = EPHB6 (human) (UniProt O15197)
GRK4 (human) = GRK4 (human) (UniProt P32298)
Sequence of GRK4 (human) (P32298 whole entry, looked up): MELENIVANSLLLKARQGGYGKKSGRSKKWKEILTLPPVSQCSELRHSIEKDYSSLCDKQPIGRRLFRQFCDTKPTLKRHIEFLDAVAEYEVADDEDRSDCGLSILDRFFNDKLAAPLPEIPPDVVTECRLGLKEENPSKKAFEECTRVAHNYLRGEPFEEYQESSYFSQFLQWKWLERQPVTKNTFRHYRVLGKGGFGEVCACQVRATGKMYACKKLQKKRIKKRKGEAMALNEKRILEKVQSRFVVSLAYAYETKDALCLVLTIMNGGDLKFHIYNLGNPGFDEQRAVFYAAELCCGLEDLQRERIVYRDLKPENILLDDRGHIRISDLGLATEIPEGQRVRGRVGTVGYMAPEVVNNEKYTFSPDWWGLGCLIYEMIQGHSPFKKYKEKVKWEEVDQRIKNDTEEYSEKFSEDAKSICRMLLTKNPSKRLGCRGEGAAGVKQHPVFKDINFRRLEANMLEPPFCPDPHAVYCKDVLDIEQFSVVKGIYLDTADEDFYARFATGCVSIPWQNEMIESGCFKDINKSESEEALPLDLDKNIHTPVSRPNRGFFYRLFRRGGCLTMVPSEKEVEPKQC

HIPK3 (human) = HIPK3 (human) (UniProt Q9H422)
[2] = molecular target: JAK2 JH1 catalytic (human) (UniProt O60674)
MAK (human) = MAK (human) (UniProt P20794)
MAP2K5 (human) = MAP2K5 (human) (UniProt Q13163)
MAP2K6 (human) = MAP2K6 (human) (UniProt P52564)
MAP2K7 (human) = MAP2K7 (human) (UniProt O14733)
MAP4K4 (human) = MAP4K4 (human) (UniProt O95819)
MAPK14 (human) = MAPK14 (human) (UniProt Q16539)
MAPK4 (human) = MAPK4 (human) (UniProt P31152)
MATK (human) = MATK (human) (UniProt P42679)
MST1R (human) = MST1R (human) (UniProt Q04912)
MYLK2 (human) = MYLK2 (human) (UniProt Q9H1R3)
PIP5K1A (human) = PIP5K1A (human) (UniProt Q99755)
RIOK2 (human) = RIOK2 (human) (UniProt Q9BVS4)
RIPK1 (human) = RIPK1 (human) (UniProt Q13546)
ROCK1 (human) = ROCK1 (human) (UniProt Q13464)
Sequence of ROCK1 (human) (Q13464 whole entry, looked up): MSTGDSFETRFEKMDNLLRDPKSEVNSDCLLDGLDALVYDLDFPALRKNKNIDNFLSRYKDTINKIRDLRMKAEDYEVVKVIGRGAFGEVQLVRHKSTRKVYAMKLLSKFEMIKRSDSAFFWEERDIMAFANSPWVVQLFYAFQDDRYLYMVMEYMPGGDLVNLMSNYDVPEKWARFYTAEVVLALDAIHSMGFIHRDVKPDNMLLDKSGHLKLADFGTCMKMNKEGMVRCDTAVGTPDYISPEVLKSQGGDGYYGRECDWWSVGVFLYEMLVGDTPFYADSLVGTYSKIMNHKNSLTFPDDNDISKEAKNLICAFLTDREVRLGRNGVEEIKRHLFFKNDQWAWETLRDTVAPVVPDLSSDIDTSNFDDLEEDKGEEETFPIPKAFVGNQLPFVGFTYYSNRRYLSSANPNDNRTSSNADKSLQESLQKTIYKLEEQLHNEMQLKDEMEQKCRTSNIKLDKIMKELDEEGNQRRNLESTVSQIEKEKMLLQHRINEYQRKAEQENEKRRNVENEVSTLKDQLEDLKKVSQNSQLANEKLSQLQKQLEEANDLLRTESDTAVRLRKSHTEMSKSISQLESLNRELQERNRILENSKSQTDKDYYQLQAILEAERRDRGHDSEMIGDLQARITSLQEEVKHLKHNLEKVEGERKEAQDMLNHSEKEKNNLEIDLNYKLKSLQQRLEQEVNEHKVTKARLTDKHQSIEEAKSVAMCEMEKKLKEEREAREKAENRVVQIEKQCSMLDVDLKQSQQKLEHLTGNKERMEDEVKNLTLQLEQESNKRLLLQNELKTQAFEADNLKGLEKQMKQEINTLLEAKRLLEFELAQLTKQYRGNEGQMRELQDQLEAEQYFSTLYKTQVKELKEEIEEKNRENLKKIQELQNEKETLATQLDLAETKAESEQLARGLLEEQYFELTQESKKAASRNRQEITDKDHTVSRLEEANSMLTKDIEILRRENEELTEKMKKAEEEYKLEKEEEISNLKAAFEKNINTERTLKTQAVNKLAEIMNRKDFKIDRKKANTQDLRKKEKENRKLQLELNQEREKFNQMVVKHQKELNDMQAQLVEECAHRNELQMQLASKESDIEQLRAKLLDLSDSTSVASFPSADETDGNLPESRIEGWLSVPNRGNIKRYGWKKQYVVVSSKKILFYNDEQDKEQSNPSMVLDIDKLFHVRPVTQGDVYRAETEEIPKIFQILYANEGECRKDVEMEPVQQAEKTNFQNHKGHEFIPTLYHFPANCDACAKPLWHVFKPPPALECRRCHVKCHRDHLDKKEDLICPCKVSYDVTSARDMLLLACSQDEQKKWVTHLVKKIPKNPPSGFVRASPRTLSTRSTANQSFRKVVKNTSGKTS

RPS6KA2 KD1 (human) = RPS6KA2 KD1 (human) (UniProt Q15349)
Sequence of RPS6KA2 KD1 (human) (Q15349 whole entry, looked up): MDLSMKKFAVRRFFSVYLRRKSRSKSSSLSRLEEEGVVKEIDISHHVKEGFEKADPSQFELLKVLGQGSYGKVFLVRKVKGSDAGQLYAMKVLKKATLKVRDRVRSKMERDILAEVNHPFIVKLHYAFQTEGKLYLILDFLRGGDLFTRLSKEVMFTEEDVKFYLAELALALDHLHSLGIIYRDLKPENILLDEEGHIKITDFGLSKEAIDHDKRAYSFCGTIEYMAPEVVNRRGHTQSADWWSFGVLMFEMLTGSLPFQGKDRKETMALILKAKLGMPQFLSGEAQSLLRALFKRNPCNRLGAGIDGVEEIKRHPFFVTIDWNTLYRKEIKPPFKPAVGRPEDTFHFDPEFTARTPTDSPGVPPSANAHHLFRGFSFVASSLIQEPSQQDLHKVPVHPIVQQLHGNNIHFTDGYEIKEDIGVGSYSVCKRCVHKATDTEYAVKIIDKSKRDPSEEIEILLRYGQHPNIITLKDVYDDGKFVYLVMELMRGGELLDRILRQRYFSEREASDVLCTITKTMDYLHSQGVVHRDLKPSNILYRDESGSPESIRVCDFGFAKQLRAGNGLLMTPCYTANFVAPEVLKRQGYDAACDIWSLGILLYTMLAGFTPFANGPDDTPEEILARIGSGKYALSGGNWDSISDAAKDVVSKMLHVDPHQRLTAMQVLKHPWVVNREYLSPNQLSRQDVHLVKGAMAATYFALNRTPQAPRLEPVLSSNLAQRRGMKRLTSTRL

RPS6KA3 KD1 (human) = RPS6KA3 KD1 (human) (UniProt P51812)
SRC (human) = SRC (human) (UniProt P12931)
STK16 (human) = STK16 (human) (UniProt O75716)
Sequence of STK16 (human) (O75716 whole entry, looked up): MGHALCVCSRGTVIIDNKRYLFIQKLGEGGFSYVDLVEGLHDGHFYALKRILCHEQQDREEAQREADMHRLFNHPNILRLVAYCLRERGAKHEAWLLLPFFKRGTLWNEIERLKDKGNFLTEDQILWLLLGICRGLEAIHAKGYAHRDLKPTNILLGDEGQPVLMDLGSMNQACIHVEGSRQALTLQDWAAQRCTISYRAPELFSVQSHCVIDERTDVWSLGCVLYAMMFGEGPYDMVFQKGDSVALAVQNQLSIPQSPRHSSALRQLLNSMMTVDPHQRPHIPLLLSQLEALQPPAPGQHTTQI

STK17B (human) = STK17B (human) (UniProt O94768)
TGFBR2 (human) = TGFBR2 (human) (UniProt P37173)
Sequence of TGFBR2 (human) (P37173 whole entry, looked up): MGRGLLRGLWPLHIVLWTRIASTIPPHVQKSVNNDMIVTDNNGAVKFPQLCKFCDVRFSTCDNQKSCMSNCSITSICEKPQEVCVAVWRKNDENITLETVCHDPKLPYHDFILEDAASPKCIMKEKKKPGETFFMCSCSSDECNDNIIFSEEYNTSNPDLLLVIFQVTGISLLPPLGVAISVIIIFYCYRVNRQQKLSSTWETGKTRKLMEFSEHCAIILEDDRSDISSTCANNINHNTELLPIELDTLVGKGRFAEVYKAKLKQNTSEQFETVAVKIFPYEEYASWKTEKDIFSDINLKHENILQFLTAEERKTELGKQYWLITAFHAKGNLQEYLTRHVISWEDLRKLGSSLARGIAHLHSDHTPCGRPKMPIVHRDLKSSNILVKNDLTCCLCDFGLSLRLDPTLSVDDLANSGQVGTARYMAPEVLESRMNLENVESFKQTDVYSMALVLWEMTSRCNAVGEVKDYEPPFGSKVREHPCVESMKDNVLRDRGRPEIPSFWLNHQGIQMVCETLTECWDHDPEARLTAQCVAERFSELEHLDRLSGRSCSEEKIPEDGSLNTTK

[3] = molecular target: TYK2 JH2 pseudokinase (human) (UniProt P29597)
WEE2 (human) = WEE2 (human) (UniProt P0C1S8)
Sequence of WEE2 (human) (P0C1S8 whole entry, looked up): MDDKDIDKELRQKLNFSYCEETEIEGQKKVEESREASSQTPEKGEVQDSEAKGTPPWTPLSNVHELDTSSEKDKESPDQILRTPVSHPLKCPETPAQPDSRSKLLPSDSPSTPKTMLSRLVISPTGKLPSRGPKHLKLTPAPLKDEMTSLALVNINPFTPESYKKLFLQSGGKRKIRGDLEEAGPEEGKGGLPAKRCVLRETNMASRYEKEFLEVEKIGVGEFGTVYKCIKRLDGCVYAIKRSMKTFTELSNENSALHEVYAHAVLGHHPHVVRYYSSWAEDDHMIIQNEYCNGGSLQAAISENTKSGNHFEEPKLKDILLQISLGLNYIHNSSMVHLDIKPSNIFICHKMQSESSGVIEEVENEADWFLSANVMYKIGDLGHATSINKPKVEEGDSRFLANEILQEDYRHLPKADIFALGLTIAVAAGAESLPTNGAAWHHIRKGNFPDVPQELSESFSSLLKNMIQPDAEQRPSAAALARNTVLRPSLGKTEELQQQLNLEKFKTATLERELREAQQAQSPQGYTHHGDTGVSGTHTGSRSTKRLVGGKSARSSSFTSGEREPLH

Sequence of BMPR1A (human) (P36894 whole entry, looked up): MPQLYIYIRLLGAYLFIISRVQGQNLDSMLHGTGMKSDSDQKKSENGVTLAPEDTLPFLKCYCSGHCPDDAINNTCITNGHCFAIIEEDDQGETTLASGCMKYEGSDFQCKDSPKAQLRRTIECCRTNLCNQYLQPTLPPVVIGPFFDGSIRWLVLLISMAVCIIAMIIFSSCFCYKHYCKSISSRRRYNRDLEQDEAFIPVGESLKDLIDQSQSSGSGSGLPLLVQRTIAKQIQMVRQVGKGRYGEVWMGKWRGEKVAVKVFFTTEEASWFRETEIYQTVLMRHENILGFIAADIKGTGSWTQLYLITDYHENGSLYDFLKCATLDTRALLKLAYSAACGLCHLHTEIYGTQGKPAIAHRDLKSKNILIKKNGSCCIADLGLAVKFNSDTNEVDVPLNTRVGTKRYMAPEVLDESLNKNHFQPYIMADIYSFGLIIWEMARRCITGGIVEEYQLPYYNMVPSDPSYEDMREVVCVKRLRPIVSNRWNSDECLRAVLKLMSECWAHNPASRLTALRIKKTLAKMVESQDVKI
Sequence of AURKA (human) (O14965 whole entry, looked up): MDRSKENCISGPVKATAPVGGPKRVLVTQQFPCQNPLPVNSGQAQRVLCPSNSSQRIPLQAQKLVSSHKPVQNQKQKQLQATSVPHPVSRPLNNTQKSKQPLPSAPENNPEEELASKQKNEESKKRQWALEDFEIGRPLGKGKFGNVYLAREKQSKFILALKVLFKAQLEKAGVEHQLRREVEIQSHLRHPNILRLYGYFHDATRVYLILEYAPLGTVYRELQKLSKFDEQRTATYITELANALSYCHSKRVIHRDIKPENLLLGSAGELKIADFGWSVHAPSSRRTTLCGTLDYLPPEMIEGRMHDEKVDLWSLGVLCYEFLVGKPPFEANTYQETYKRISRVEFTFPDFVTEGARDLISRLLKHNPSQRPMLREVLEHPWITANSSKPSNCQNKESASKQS

`CC1=C(C(=O)Nc2cc3cn[nH]c3cc2F)C(c2ccc(C(F)(F)F)cc2)CC(=O)N1` (stereo unspecified) gave a kinase still bound, per cent of control (AURKA (human)) of 46%, a kinase still bound, per cent of control (BMPR1A (human)) of 17% and a kinase still bound, per cent of control (BRSK1 (human)) of 93%. It also gave a kinase still bound, per cent of control (CAMK2G (human)) of 97%, a kinase still bound, per cent of control (CDC2L2 (human)) of 96% and a kinase still bound, per cent of control (CIT (human)) of 87%. It also gave a kinase still bound, per cent of control (CLK2 (human)) of 54%, a kinase still bound, per cent of control (CSNK2A1 (human)) of 81% and a kinase still bound, per cent of control (CSNK2A2 (human)) of 86%. For the same compound, the kinase still bound, per cent of control (DDR2 (human)) was 100%, the kinase still bound, per cent of control (DYRK1A (human)) was 100% and the kinase still bound, per cent of control [1] was 90%. It also gave a kinase still bound, per cent of control (EIF2AK1 (human)) of 89%, a kinase still bound, per cent of control (EPHA4 (human)) of 78% and a kinase still bound, per cent of control (EPHB6 (human)) of 68%. It also gave a kinase still bound, per cent of control (GRK4 (human)) of 99%, a kinase still bound, per cent of control (HIPK3 (human)) of 85% and a kinase still bound, per cent of control [2] of 12%. It also gave a kinase still bound, per cent of control (MAK (human)) of 100%, a kinase still bound, per cent of control (MAP2K5 (human)) of 71% and a kinase still bound, per cent of control (MAP2K6 (human)) of 95%. The kinase still bound, per cent of control (MAP2K7 (human)) was 80%, the kinase still bound, per cent of control (MAP4K4 (human)) was 78% and the kinase still bound, per cent of control (MAPK14 (human)) was 100%. It also gave a kinase still bound, per cent of control (MAPK4 (human)) of 100%, a kinase still bound, per cent of control (MATK (human)) of 68% and a kinase still bound, per cent of control (MST1R (human)) of 55%. For the same compound, the kinase still bound, per cent of control (MYLK2 (human)) was 99%, the kinase still bound, per cent of control (PIP5K1A (human)) was 89% and the kinase still bound, per cent of control (RIOK2 (human)) was 86%. The kinase still bound, per cent of control (RIPK1 (human)) was 84%, the kinase still bound, per cent of control (ROCK1 (human)) was 0.3% and the kinase still bound, per cent of control (RPS6KA2 KD1 (human)) was 95%. The kinase still bound, per cent of control (RPS6KA3 KD1 (human)) was 53%, the kinase still bound, per cent of control (SRC (human)) was 83% and the kinase still bound, per cent of control (STK16 (human)) was 100%. The kinase still bound, per cent of control (STK17B (human)) was 100%, the kinase still bound, per cent of control (TGFBR2 (human)) was 85% and the kinase still bound, per cent of control [3] was 100%. The kinase still bound, per cent of control (WEE2 (human)) was 66%.

`N#C/C(=C1/Nc2ccccc2S1)c1ccnc(NCCc2cccnc2)n1` gave a kinase still bound, per cent of control (AURKA (human)) of 100%, a kinase still bound, per cent of control (BMPR1A (human)) of 98% and a kinase still bound, per cent of control (BRSK1 (human)) of 85%. The kinase still bound, per cent of control (CAMK2G (human)) was 78%, the kinase still bound, per cent of control (CDC2L2 (human)) was 85% and the kinase still bound, per cent of control (CIT (human)) was 59%. It also gave a kinase still bound, per cent of control (CLK2 (human)) of 3.7%, a kinase still bound, per cent of control (CSNK2A1 (human)) of 0.4% and a kinase still bound, per cent of control (CSNK2A2 (human)) of 1%. It also gave a kinase still bound, per cent of control (DDR2 (human)) of 100%, a kinase still bound, per cent of control (DYRK1A (human)) of 0% and a kinase still bound, per cent of control (EIF2AK1 (human)) of 100%. It also gave a kinase still bound, per cent of control (EPHA4 (human)) of 100%, a kinase still bound, per cent of control (EPHB6 (human)) of 3.2% and a kinase still bound, per cent of control (GRK4 (human)) of 32%. For the same compound, the kinase still bound, per cent of control (HIPK3 (human)) was 0.25%, the kinase still bound, per cent of control [2] was 45% and the kinase still bound, per cent of control (MAK (human)) was 100%. It also gave a kinase still bound, per cent of control (MAP2K5 (human)) of 0.8%, a kinase still bound, per cent of control (MAP2K6 (human)) of 64% and a kinase still bound, per cent of control (MAP2K7 (human)) of 100%. For the same compound, the kinase still bound, per cent of control (MAP4K4 (human)) was 93%, the kinase still bound, per cent of control (MAPK14 (human)) was 57% and the kinase still bound, per cent of control (MAPK4 (human)) was 96%. It also gave a kinase still bound, per cent of control (MATK (human)) of 100%, a kinase still bound, per cent of control (MST1R (human)) of 100% and a kinase still bound, per cent of control (MYLK2 (human)) of 100%. The kinase still bound, per cent of control (PIP5K1A (human)) was 18%, the kinase still bound, per cent of control (RIOK2 (human)) was 2.4% and the kinase still bound, per cent of control (RIPK1 (human)) was 100%. For the same compound, the kinase still bound, per cent of control (ROCK1 (human)) was 37%, the kinase still bound, per cent of control (RPS6KA2 KD1 (human)) was 100% and the kinase still bound, per cent of control (SRC (human)) was 100%. It also gave a kinase still bound, per cent of control (STK16 (human)) of 13%, a kinase still bound, per cent of control (STK17B (human)) of 100% and a kinase still bound, per cent of control (TGFBR2 (human)) of 100%. The kinase still bound, per cent of control [3] was 1.4% and the kinase still bound, per cent of control (WEE2 (human)) was 100%.

Compound `CCN(CCO)CCCOc1ccc2c(Nc3cc(CC(=O)Nc4cccc(F)c4)[nH]n3)ncnc2c1` has a kinase still bound, per cent of control (AURKA (human)) of 6.5%, a kinase still bound, per cent of control (BMPR1A (human)) of 29% and a kinase still bound, per cent of control (BRSK1 (human)) of 64%. The kinase still bound, per cent of control (CAMK2G (human)) was 100%, the kinase still bound, per cent of control (CDC2L2 (human)) was 5% and the kinase still bound, per cent of control (CIT (human)) was 27%. The kinase still bound, per cent of control (CLK2 (human)) was 67%, the kinase still bound, per cent of control (CSNK2A1 (human)) was 84% and the kinase still bound, per cent of control (CSNK2A2 (human)) was 86%. The kinase still bound, per cent of control (DDR2 (human)) was 27%, the kinase still bound, per cent of control (DYRK1A (human)) was 100% and the kinase still bound, per cent of control (EIF2AK1 (human)) was 5.2%. For the same compound, the kinase still bound, per cent of control (EPHA4 (human)) was 92%, the kinase still bound, per cent of control (EPHB6 (human)) was 0.8% and the kinase still bound, per cent of control (GRK4 (human)) was 100%. It also gave a kinase still bound, per cent of control (HIPK3 (human)) of 29%, a kinase still bound, per cent of control [2] of 58% and a kinase still bound, per cent of control (MAK (human)) of 92%. It also gave a kinase still bound, per cent of control (MAP2K5 (human)) of 0.4%, a kinase still bound, per cent of control (MAP2K6 (human)) of 99% and a kinase still bound, per cent of control (MAP2K7 (human)) of 91%. The kinase still bound, per cent of control (MAP4K4 (human)) was 98%, the kinase still bound, per cent of control (MAPK14 (human)) was 100% and the kinase still bound, per cent of control (MAPK4 (human)) was 100%. The kinase still bound, per cent of control (MATK (human)) was 71%, the kinase still bound, per cent of control (MST1R (human)) was 25% and the kinase still bound, per cent of control (MYLK2 (human)) was 87%. The kinase still bound, per cent of control (PIP5K1A (human)) was 73%, the kinase still bound, per cent of control (RIOK2 (human)) was 58% and the kinase still bound, per cent of control (RIPK1 (human)) was 100%. It also gave a kinase still bound, per cent of control (ROCK1 (human)) of 67%, a kinase still bound, per cent of control (RPS6KA2 KD1 (human)) of 80% and a kinase still bound, per cent of control (RPS6KA3 KD1 (human)) of 80%. For the same compound, the kinase still bound, per cent of control (SRC (human)) was 43%, the kinase still bound, per cent of control (STK16 (human)) was 100% and the kinase still bound, per cent of control (STK17B (human)) was 93%. For the same compound, the kinase still bound, per cent of control (TGFBR2 (human)) was 100%, the kinase still bound, per cent of control [3] was 98% and the kinase still bound, per cent of control (WEE2 (human)) was 100%.

For `CC(=O)c1c(C)c2cnc(Nc3ccc(N4CCNCC4)cn3)nc2n(C2CCCC2)c1=O`, the kinase still bound, per cent of control (AURKA (human)) was 83%, the kinase still bound, per cent of control (BMPR1A (human)) was 42% and the kinase still bound, per cent of control (BRSK1 (human)) was 68%. The kinase still bound, per cent of control (CAMK2G (human)) was 11%, the kinase still bound, per cent of control (CDC2L2 (human)) was 78% and the kinase still bound, per cent of control (CIT (human)) was 3.2%. The kinase still bound, per cent of control (CLK2 (human)) was 0.35%, the kinase still bound, per cent of control (CSNK2A1 (human)) was 0.05% and the kinase still bound, per cent of control (CSNK2A2 (human)) was 0.65%. It also gave a kinase still bound, per cent of control (DDR2 (human)) of 56%, a kinase still bound, per cent of control (DYRK1A (human)) of 0.9% and a kinase still bound, per cent of control (EIF2AK1 (human)) of 32%. The kinase still bound, per cent of control (EPHA4 (human)) was 94%, the kinase still bound, per cent of control (EPHB6 (human)) was 65% and the kinase still bound, per cent of control (GRK4 (human)) was 26%. For the same compound, the kinase still bound, per cent of control (HIPK3 (human)) was 2.1%, the kinase still bound, per cent of control [2] was 0.65% and the kinase still bound, per cent of control (MAK (human)) was 76%. For the same compound, the kinase still bound, per cent of control (MAP2K5 (human)) was 62%, the kinase still bound, per cent of control (MAP2K6 (human)) was 45% and the kinase still bound, per cent of control (MAP2K7 (human)) was 87%. The kinase still bound, per cent of control (MAP4K4 (human)) was 23%, the kinase still bound, per cent of control (MAPK4 (human)) was 87% and the kinase still bound, per cent of control (MATK (human)) was 46%. The kinase still bound, per cent of control (MYLK2 (human)) was 32%, the kinase still bound, per cent of control (PIP5K1A (human)) was 32% and the kinase still bound, per cent of control (RIOK2 (human)) was 56%. For the same compound, the kinase still bound, per cent of control (RIPK1 (human)) was 65%, the kinase still bound, per cent of control (ROCK1 (human)) was 30% and the kinase still bound, per cent of control (RPS6KA2 KD1 (human)) was 14%. The kinase still bound, per cent of control (RPS6KA3 KD1 (human)) was 28%, the kinase still bound, per cent of control (SRC (human)) was 93% and the kinase still bound, per cent of control (STK16 (human)) was 3.4%. The kinase still bound, per cent of control (WEE2 (human)) was 75%.
